# System: INS-1E rat beta cells, no cytokines, CellTiter-Glo ATP, 48 h
# Assay: ATP level change in INS-1E without cytokines, dose response, counter-screen for beta-cell apoptosis protection project, INS-1E rat cells, ATP luminescence, cherry pick (AID 463229)
row,Compound,AC50 [µM]
1,Cc1ccc(C(C)C)c(OCc2ccc(C(=O)N/N=C/c3cccc(O)c3O)cc2)c1,7.27
2,Cc1ccc(C)c(S(=O)(=O)N2CCN(c3ncnc4sccc34)CC2)c1,4.53
3,Cc1ccc(Cl)cc1N1CCN(C(=O)CSc2nnc3n2C(C)(C)Cc2ccccc2-3)CC1,7.07
4,C#CCOCCOCCOCCNc1nc(N2CCN(C(=O)CCCCCCCCCCNC(=O)[C@H](CCCCN)n3cc(C)nn3)CC2)nc(N2CCN(C(=O)CCCCCCCCCCNC(=O)[C@@H]([C@H](C)CC)n3cc(CCCCCN)nn3)CC2)n1,6.78
5,CC(C)C(=O)NC(c1ccccc1)c1cc([N+](=O)[O-])c2cccnc2c1O (stereo not drawn),10.6
6,CCN(CC)S(=O)(=O)c1cc(NC(=O)CNc2cccc(S(=O)(=O)N3CCCC3)c2)ccc1C,7.43
7,Cc1ccc2[nH]c(=O)c(C3C(C#N)=C(N)Oc4c3ccc3cccnc43)cc2c1 (stereo not drawn),4.74
8,O=C(N/N=C/c1cc(Cl)ccc1O)c1ccccc1Br,8.9
9,O=[N+]([O-])c1ccc(O)c(/C=N/Nc2nc3ccccc3[nH]2)c1,2.01
10,CCn1c(Cl)c(C=O)s/c1=N\S(=O)(=O)c1ccccc1,6.63
11,CC(C)(C)OC(=O)NCCCCCc1cn([C@@H](CO)C(=O)NCCCCCCCCCCC(=O)N2CCN(C(=O)OC(C)(C)C)CC2)nn1,7.05
12,CC(C)(C)Nc1nc(-c2ccccn2)nc2ccccc12,6.87
13,O=C(N/N=C/c1sc(N2CCOCC2)nc1-c1ccccc1)c1cccc(S(=O)(=O)N2CCCC2)c1,2.25
14,CC1CCN(Cc2c(C(=O)N/N=C/c3cc(Br)ccc3O)nnn2-c2nonc2N)CC1,2.52
15,CCOC(=O)N1CCC(NC(=O)C2CCCN(Cc3nc(-c4cccc(Cl)c4)oc3C)C2)CC1 (stereo not drawn),6.01
16,CCCCCc1ccc(OCCCC[n+]2ccc(C)cc2)c(CCCCC)c1,2.34
17,CSc1nc(N)nc2c1ncn2CC(=O)N1CCN(Cc2c(C)cc(C)cc2C)CC1,2.65
18,Cc1cc(C)c(S(=O)(=O)/N=C2/C=C(Sc3ncn[nH]3)C(=O)c3ccccc32)cc1C,7.58
19,COc1ccc(-n2c(-c3ccc(Br)cc3)c[n+]3c2CCc2ccccc2-3)cc1,1.86
20,Cc1ncc(CO)c(/C=N/Nc2ccc(C(F)(F)F)cn2)c1O,5.17
21,CC[C@H](C)[C@@H](C(=O)NCCCCCCCCCCC(=O)N1CCN(C(=O)OC(C)(C)C)CC1)n1cc(CCCCCNC(=O)OC(C)(C)C)nn1,5.92
22,CN1CCN(C(c2ccc(C(F)(F)F)cc2)c2ccc3cccnc3c2O)CC1 (stereo not drawn),4.56
23,Cc1cccnc1CN1CCN(C(=O)c2cc(COc3ccc4ncccc4c3)on2)CC1,5.44
24,CCc1nc(N2CCN(C(C)=O)CC2)c2c3c(sc2n1)CC(C(C)(C)C)CC3 (stereo not drawn),2.79
25,O=C(CNc1ccccc1)N/N=C/c1c(O)ccc2ccccc12,15.8
26,Cc1cc([N+](=O)[O-])c2ccccc2[n+]1[O-],0.454
27,C=C(C)C(=O)N1CC2(CC(c3cccc(NC(=O)COc4ccc(Cl)cc4)c3)=NO2)C[C@@H]1C(N)=O (stereo partly drawn),12.8

row,Compound,AC50 [µM]
1,Cc1cccc(/C=N\NC(=O)c2ccc(Cl)cc2)c1O,4.8
2,Cc1cc(Cl)c(S(=O)(=O)N2CCN(c3ccc(F)cc3)CC2)cc1OCC(=O)NC1CCCCC1,7.07
3,CN(Cc1cccnc1)C(=O)c1cc(COc2ccc3ncccc3c2)on1,9.3
4,Cc1cccc(NC(=O)c2ccc([N+](=O)[O-])s2)c1C,26.1
5,O=C(Nc1nc(-c2ccccn2)cs1)c1ccc(Cl)s1,4.38
6,Cc1ccc(S(=O)(=O)c2ccc([N+](=O)[O-])cn2)cc1,13.5
7,CC(C)(C)c1cc(NCCCn2ccnc2)n2ncc(-c3ccccc3)c2n1,15
8,O=C(N/N=C\c1c(O)ccc2ccccc12)c1ccc(Cn2cccn2)o1,4.39
9,Fc1ccc(CN(Cc2ccccc2)C(c2cccs2)c2nnnn2C2CCCCC2)cc1 (stereo not drawn),5.93
10,O=[N+]([O-])c1ccc(-[n+]2ccc3ccccc3c2)c([N+](=O)[O-])c1,7.89
11,Oc1c(C(Nc2ccccn2)c2ccccn2)ccc2cccnc12 (stereo not drawn),6.16
12,O=C(Nc1nc(-c2ccccn2)cs1)c1ccccc1-n1cnnn1,5.32
13,O=C1C(Nc2ccccc2)=C/C(=N/S(=O)(=O)c2cccs2)c2ccccc21,2.07
14,COc1ccc(Cc2nnc(N/N=C/c3ccccc3O)[nH]c2=O)cc1OC,4.32
15,CCc1ccc(C2=NNC(=Nc3cccc(S(=O)(=O)N(C)C)c3)SC2)cc1,3.66
16,CC(C)=CCc1cc2c(=O)c3c(O)c4c(cc3oc2c(O)c1O)OC(C)C4(C)C (stereo not drawn),7.43
17,CCCCNc1cc(C)nc(NCc2ccccc2)n1,8.1
18,Cc1ccc(/C=N/Nc2ccnc3cc(Cl)ccc23)c(C)c1,13.4
19,NC(=S)N/N=C/c1ccc(C23CC4CC(CC(C4)C2)C3)cc1,12.2
20,C#CCOCCOCCOCCNc1nc(N2CCN(C(=O)CCCCCCCCCCNC(=O)Cn3cc(C[C@@H](C)O)nn3)CC2)nc(N2CCN(C(=O)CCCCCCCCCCNC(=O)[C@@H]([C@H](C)CC)n3cc(CCCCCN)nn3)CC2)n1,7.83
21,Nc1ccccc1C#CC(=O)c1ccccc1,11.9
22,CCCCCCCCCCOC(=O)Cn1c(COc2cccc(C)c2)[n+](C)c2ccccc21,4.71
23,CCOC(=O)c1ccc(NC(=O)c2nc(S(=O)(=O)Cc3ccccc3)ncc2Cl)cc1,9.2
24,CCCCCCSc1cccc(-c2nc3ccccn3c2NCc2ccccc2)c1,6.25
25,Cc1nc(C)c(-c2csc(NCCc3ccccc3)n2)s1,24.1
26,c1ccc(/N=C2\N=C(Nc3ccccn3)c3ccccc32)nc1,5.52
